According to publication PMC13489962, “Small-molecule modulation of β-arrestins” (Nature, 2026):

Legend:
Gαi = assay: ITC binding to purified Gαi
Description: ITC measurements were performed on a MicroCal iTC200 system at 25 °C. Prior to ITC experiments, all proteins (βARR1, βARR2 or βARR1 mutants) were extensively dialysed against 20 mM HEPES (pH 7.4), 100 mM NaCl, and 3 μM TCEP. Protein concentrations were determined by spectrophotometry at 280 nm, using extinction coefficients calculated from each protein sequence via the ProtParam program. The dialysis buffer was used to dilute DMSO stock solutions of β-arrestin small-molecule modulators to their final concentrations for measurements. For each ITC experiment, β-arrestin modulators (Cmpd-5 at 350 μM, Cmpd-46 at 450 μM, and Cmpd-64 at 450 μM) were loaded into the syringe and titrated into the calorimetric cell containing βARR1, βARR1 mutants or βARR2 (at about 30–40 μM, depending on the protein and experiment). Additional ITC experiments were also performed using purified GST-fused Gα subunits (Gαs, Gαq and Gαi; about 30 μM) and Gαiβγ heterotrimer (about 30 μM). Gα subunits were prepared in the same buffer (20 mM HEPES, pH 7.4, 100 mM NaCl, 3 μM TCEP), whereas the Gαiβγ heterotrimer was maintained in buffer supplemented with 0.05% DDM and 10 μM GDP, with matched DMSO carrier conditions. Modulators (300 μM) or corresponding DMSO controls were loaded and titrated as described above. The reference cell was filled with distilled water. In all experiments, the titration sequence typically consisted of an initial 0.4 μl injection, followed by 19 injections of 2 μl each, with a 180-s interval between injections to allow thermal power to return to baseline. During the experiment, the reference power was set to 7 μcal s^−1, and the sample cell was stirred continuously at 750 rpm. […] Data were analysed and fit using a one-site independent binding model to obtain the equilibrium dissociation constant, Kd (from the association constant Ka = 1/Kd), stoichiometry (N), and thermodynamic parameters including enthalpy (ΔH) and entropy (−TΔS) of binding. Data were analysed using MicroCal PEAQ-ITC analysis software (v1.1.0.1262).

[1] = system: β2AR desensitization (cAMP); assay: FRET (ICUE2) cAMP accumulation, β2AR desensitization; assay type: cell-based; conditions: 40 μM, 5 min; Iso 10 μM; HEK293 cells stably expressing β2AR
Description: To measure cellular cAMP production in live cells mediated by stimulatory G protein, Gαs-coupled β2AR activation, FRET-based Epac sensors were used as described previously. The Epac2 (ICUE2) sensor contains a CFP and YFP FRET pair. HEK293 cells stably expressing ICUE2 were plated in poly-D-lysine-coated, black, clear-bottom 96-well plates (Corning) at a density of 50,000 cells per well. At least 16 h after plating, cells were washed with PBS and incubated in HEPES-buffered saline solution (10 mM HEPES, 150 mM NaCl, 5 mM KCl, 1.5 mM MgCl2, 1.5 mM CaCl2, 10 mM glucose, 0.2% BSA, pH 7.4) for 1 h at 37 °C. Cells were then treated with either β-arrestin small-molecule modulators (40 μM) or DMSO for 5 min, and baseline fluorescence was monitored. Real-time cAMP measurement was initiated by stimulating cells with 10 μM Iso at 37 °C. FRET changes corresponding to cAMP accumulation were measured as changes in the background-subtracted 480 nm/535 nm fluorescence emission ratio (CFP/YFP), reflecting changes in cAMP levels. The entire cAMP accumulation profile was quantified by calculating the AUC for the time course. To assess the effect of modulators on the agonist-induced cAMP response, AUC values were expressed as a percentage of the response to Iso in the presence of DMSO (set as 100%), enabling comparison of the effect of each modulator relative to this agonist-alone control.

[2] = system: adult ventricular cardiomyocytes (AT1R); assay: Adult ventricular cardiomyocyte contractility; assay type: cell-based, mouse; conditions: 25 μM, 20 min; TRV027 10 μM; paced at 1 Hz
Description: All animal experiments were approved by the Institutional Animal Care and Use Committee (IACUC) at Duke University Medical Center and performed in accordance with relevant guidelines and regulations. Ventricular cardiomyocytes were freshly isolated from 12- to 16-week-old C57BL/6J wild-type mice using a standard Langendorff perfusion system[39],[74]. The heart was initially cannulated through the aorta and then perfused with an oxygenated buffer at 37 °C (120 mM NaCl, 14.8 mM KCl, 0.6 mM KH2PO4, 0.6 mM Na2HPO4, 1.2 mM MgSO4·7H20, 10 mM HEPES, 4.6 mM NaHCO3, 30 mM taurine, and 5.6 mM glucose, pH 7.3). After 2 min, the buffer was switched to a digestion solution containing 2.4 mg ml^−1 collagenase (Worthington). Following 8 min of digestion, ventricles were transferred to a stopping buffer that included 10% calf serum. Myocytes were then manually dissociated and gradually brought to a physiological Ca^2+ concentration (1.2 mM). Isolated cardiomyocyte was first pretreated with DMSO (0.1%), C5, C46 or C64 (25 µM) for 20 min followed by treatment with HBSS (basal), angiotensin II (positive control, 10 µM) or TRV027 (10 µM). Cells were plated in a chamber (Ionoptix) on a Nikon Eclipse TE300 inverted microscope (40× 0.9 NA objective, MRF00400, Nikon). Cardiomyocytes were paced at 1 Hz and 20 V (MyoPacer, Ionoptix), and sarcomere length was recorded by a MyoCam-S camera (Ionoptix). Ten consecutive contractions per cell (7–12 cells per condition) were averaged to quantify contractility and kinetic parameters (IonWizard 7.2). […] Sample size represents the number of hearts at each condition derived from an average of 7–12 cells per heart for each condition. Statistical comparisons between conditions were performed using one-way ANOVA followed by Sidak post hoc test.

Row | Compound | binding to Gαi (Gαi) | Iso-induced cAMP accumulation (AUC) relative to DMSO (set to 100%) [1] [%] | effect on TRV027-enhanced sarcomere shortening, contraction and relaxation velocity [2]
1 | C=C1C(=O)[C@]23[C@H](O)[C@H]1CC[C@H]2[C@@]12CO[C@]3(O)[C@@H](O)[C@@H]1C(C)(C)CC[C@@H]2O [Cmpd-5, (1S,4aR,5S,6S,6aR,9S,11aS,11bS,14R)-1,5,6,14-tetrahydroxy−4,4-dimethyl-8-methylenedecahydro-1H-6,11b-(epoxymethano)-6a,9-methanocyclohepta[a]naphthalen-7(8H)-one] | no measurable affinity | 191 | significantly inhibited
2 | C=C1C(=O)C2=CC1CCC(=O)C1(C)CCC(OCC)C(C)(C)C1CC2O (stereo not drawn) [Cmpd-46, (Z)-3-ethoxy-6-hydroxy-4,4,13a-trimethyl-9-methylene-1,2,3,4,4a,5,6,9,10,11,12,13a-dodecahydro-7,10-(metheno)benzo[11]annulene-8,13-dione] | no measurable affinity | 207 | significantly inhibited
3 | C=C1C(=O)OC2CC3(C)OC3CCC(C)=CC(OC(C)=O)C12 (stereo not drawn) [Cmpd-64, (Z)-4,10a-dimethyl-7-methylene-8-oxo-1a,2,3,6,6a,7,8,9a,10,10a decahydrooxireno[2’,3’:8,9]cyclodeca[1,2-b]furan-6-yl acetate] | very weak binding | 282 | significantly inhibited
